US8134015B2, “Compound inhibiting in vivo phosphorous transport and medicine containing the same” (Kyowa Hakko Kirin Co., Ltd., priority 2003, dated 2012)

The compounds below were run against T1, rat NaPi-2b (Rattus norvegicus, UniProt Q9JJ09) (assay: Sodium-dependent phosphate uptake of Xenopus oocytes which expressed NaPi-2b (32P)). Conditions: Xenopus oocytes expressing rat NaPi-2b, 32P radioactive phosphorus; read-out: IC50 (phosphate uptake inhibitory activity).
T1 construct: expressed in transfected cells; host or cells: Xenopus oocytes injected with cRNA
T1 sequence (Q9JJ09 1-695): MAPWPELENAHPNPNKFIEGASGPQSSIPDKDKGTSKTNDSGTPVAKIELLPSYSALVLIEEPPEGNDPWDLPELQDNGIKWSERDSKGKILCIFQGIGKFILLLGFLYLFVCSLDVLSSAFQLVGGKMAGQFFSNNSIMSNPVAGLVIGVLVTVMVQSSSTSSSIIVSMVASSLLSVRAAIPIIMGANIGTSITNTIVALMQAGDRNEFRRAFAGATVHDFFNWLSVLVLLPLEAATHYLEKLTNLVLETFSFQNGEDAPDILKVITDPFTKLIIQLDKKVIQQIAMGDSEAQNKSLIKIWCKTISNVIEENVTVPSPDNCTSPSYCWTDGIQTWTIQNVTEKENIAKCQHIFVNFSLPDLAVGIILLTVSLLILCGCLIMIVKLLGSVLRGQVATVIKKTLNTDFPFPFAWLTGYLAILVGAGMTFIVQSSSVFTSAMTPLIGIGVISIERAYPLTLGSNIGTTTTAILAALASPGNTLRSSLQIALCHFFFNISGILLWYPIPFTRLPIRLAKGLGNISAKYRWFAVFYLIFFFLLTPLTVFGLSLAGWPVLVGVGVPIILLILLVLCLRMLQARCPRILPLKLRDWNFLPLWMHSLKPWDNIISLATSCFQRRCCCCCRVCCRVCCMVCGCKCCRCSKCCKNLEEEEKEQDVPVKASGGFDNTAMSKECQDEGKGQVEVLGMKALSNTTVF
Format: cell-based
In short: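 Steps: rat NaPi-2b cDNA cloned from small intestine; cRNA made and injected into oocytes; 2-day expression; 32P phosphate uptake with compound; % inhibition at 300/100 μM taken from one curve.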

SMILES	IC50
COc1ccc(/C=N/NC(=O)c2cc(N3CCOCC3)ccc2NC(=O)c2ccc(OC)c(OC)c2)cc1 [Compound 941, 3,4-Dimethoxy-N-[2-(4-methoxy-benzylidene-hydrazinocarbonyl)-4-morpholin-4-yl-phenyl]-benzamide]	8.72 µM
CC(O)CN(Cc1cccc(C(=O)Nc2ccc(N3CCCCC3)cc2C(=O)NN=Cc2ccc(Cl)c(C(F)(F)F)c2)c1)CC(C)O (stereo not drawn) [Compound 942, 3-{[Bis-(2-hydroxy-propyl)-amino]-methyl}-N-[2-(4-chloro-3-trifluoromethyl-benzylidene-hydrazinocarbonyl)-4-piperidin-1-yl-phenyl]-benzamide]	0.2 µM
CC(O)CN(Cc1cccc(C(=O)Nc2ccc(N3CCCC3=O)cc2C(=O)N/N=C/c2ccc(Cl)c(C(F)(F)F)c2)c1)CC(C)O (stereo not drawn) [Compound 945, 3-{[Bis-(2-hydroxy-propyl)-amino]-methyl}-N-[2-(4-chloro-3-trifluoromethyl-benzylidene-hydrazinocarbonyl)-4-(2-oxo-pyrrolidin-1-yl)-phenyl]-benzamide]	19.4 µM
CC(O)CN(Cc1cccc(C(=O)Nc2ccc(OCC(O)CN3CCCCC3)cc2C(=O)N/N=C/c2ccc(Cl)c(C(F)(F)F)c2)c1)CC(C)O (stereo not drawn) [Compound 950, 3-{[Bis-(2-hydroxy-propyl)-amino]-methyl}-N-[2-(4-chloro-3-trifluoromethyl-benzylidene-hydrazinocarbonyl)-4-(2-hydroxy-3-piperidin-1-yl-propoxy)-phenyl]-benzamide]	9.08 µM
CCN(CC)CC(O)COc1ccc(NC(=O)c2cccc(CN(CC(C)O)CC(C)O)c2)c(C(=O)N/N=C/c2ccc(Cl)c(C(F)(F)F)c2)c1 (stereo not drawn) [Compound 952, 3-{[Bis-(2-hydroxy-propyl)-amino]-methyl}-N-[2-(4-chloro-3-trifluoromethyl-benzylidene-hydrazinocarbonyl)-4-(3-diethylamino-2-hydroxy-propoxy)-phenyl]-benzamide]	19.2 µM
CC(O)CN(Cc1cccc(C(=O)Nc2ccc(OCC(O)CN3CCOCC3)cc2C(=O)N/N=C/c2ccc(Cl)c(C(F)(F)F)c2)c1)CC(C)O (stereo not drawn) [Compound 954, 3-{[Bis-(2-hydroxy-propyl)-amino]-methyl}-N-[2-(4-chloro-3-trifluoromethyl-benzylidene-hydrazinocarbonyl)-4-(2-hydroxy-3-morpholin-4-yl-propoxy)-phenyl]-benzamide]	60.5 µM
CCN(CC)Cc1cccc(C(=O)Nc2sc(CN3CCCCC3)c(C)c2C(=O)N/N=C/c2ccc(Cl)c(C(F)(F)F)c2)c1 [Compound 956, N-[3-(4-Chloro-3-trifluoromethyl-benzylidene-hydrazinocarbonyl)-4-methyl-5-piperidin-1-ylmethyl-thiophen-2-yl]-3-diethylaminomethyl-benzamide]	29.8 µM
CC(O)CN(Cc1cccc(C(=O)Nc2cc3ccccc3cc2C(=O)N/N=C/c2ccc(Cl)c(C(F)(F)F)c2)c1)CC(C)O (stereo not drawn) [Compound 962, 3-{[Bis-(2-hydroxy-propyl)-amino]-methyl}-N-[3-(4-chloro-3-trifluoromethyl-benzylidene-hydrazinocarbonyl)-naphthalen-2-yl]-benzamide]	< 1 µM

More lines, now with the values ahead:

IC50	SMILES
10.6 µM	CCN(CC)CCOc1ccc(NC(=O)c2cccc(CN(CC(C)O)CC(C)O)c2)c(C(=O)NN=Cc2ccc(C)c(C)c2)c1 (stereo not drawn) [Compound 943, 3-{[Bis-(2-hydroxy-propyl)-amino]-methyl}-N-[4-(2-diethylamino-ethoxy)-2-(3,4-dimethyl-benzylidene-hydrazinocarbonyl)-phenyl]-benzamide]
12 µM	Cc1ccc(/C=N/NC(=O)c2cc(N3CCCC3=O)ccc2NC(=O)c2cccc(CN(CC(C)O)CC(C)O)c2)cc1C (stereo not drawn) [Compound 944, 3-{[Bis-(2-hydroxy-propyl)-amino]-methyl}-N-[2-(3,4-dimethyl-benzylidene-hydrazinocarbonyl)-4-(2-oxo-pyrrolidin-1-yl)-phenyl]-benzamide]
30.2 µM	CC(O)CN(Cc1cccc(C(=O)Nc2ccc(N3CCCC3=O)cc2C(=O)N/N=C/c2ccc(F)cc2)c1)CC(C)O (stereo not drawn) [Compound 947, 3-{[Bis-(2-hydroxy-propyl)-amino]-methyl}-N-[2-(4-fluoro-benzylidene-hydrazinocarbonyl)-4-(2-oxo-pyrrolidin-1-yl)-phenyl]-benzamide]
11.6 µM	Cc1ccc(/C=N/NC(=O)c2cc(N3CCCC3=O)ccc2NC(=O)c2cccc(CN(CC(C)O)CC(C)O)c2)cc1 (stereo not drawn) [Compound 948, 3-{[Bis-(2-hydroxy-propyl)-amino]-methyl}-N-[2-(4-methyl-benzylidene-hydrazinocarbonyl)-4-(2-oxo-pyrrolidin-1-yl)-phenyl]-benzamide]
< 1 µM	COc1ccc(/C=N/NC(=O)c2cc(N3CCCCC3)ccc2NC(=O)c2cccc(CN(CC(C)O)CC(C)O)c2)cc1 (stereo not drawn) [Compound 958, 3-{[Bis-(2-hydroxy-propyl)-amino]-methyl}-N-[2-(4-methoxy-benzylidene-hydrazinocarbonyl)-4-piperidin-1-yl-phenyl]-benzamide]
< 1 µM	CC(O)CN(Cc1cccc(C(=O)Nc2cc3ccccc3cc2C(=O)N/N=C/c2cccc(F)c2)c1)CC(C)O (stereo not drawn) [Compound 959, 3-{[Bis-(2-hydroxy-propyl)-amino]-methyl}-N-[3-(3-fluoro-benzylidene-hydrazinocarbonyl)-naphthalen-2-yl]-benzamide]
1.12 µM	Cc1ccc(/C=N/NC(=O)c2cc3ccccc3cc2NC(=O)c2cccc(CN(CC(C)O)CC(C)O)c2)cc1 (stereo not drawn) [Compound 960, 3-{[Bis-(2-hydroxy-propyl)-amino]-methyl}-N-[3-(4-methyl-benzylidene-hydrazinocarbonyl)-naphthalen-2-yl]-benzamide]
< 1 µM	Cc1ccc(/C=N/NC(=O)c2cc3ccccc3cc2NC(=O)c2cccc(CN(CC(C)O)CC(C)O)c2)cc1C (stereo not drawn) [Compound 961, 3-{[Bis-(2-hydroxy-propyl)-amino]-methyl}-N-[3-(3,4-dimethyl-benzylidene-hydrazinocarbonyl)-naphthalen-2-yl]-benzamide]
< 1 µM	COc1ccc(/C=N/NC(=O)c2cc3ccccc3cc2NC(=O)c2cccc(CN(CC(C)O)CC(C)O)c2)cc1 (stereo not drawn) [Compound 963, 3-{[Bis-(2-hydroxy-propyl)-amino]-methyl}-N-[3-(4-methoxy-benzylidene-hydrazinocarbonyl)-naphthalen-2-yl]-benzamide]

Same assay, conditions: phosphate uptake, oocytes expressing rat NaPi-2b; 300 μM, determined from inhibition curve

SMILES	inhibition at 300 µM
COc1ccc(/C=N/NC(=O)c2cc(N3CCCC3=O)ccc2NC(=O)c2cccc(CN(CC(C)O)CC(C)O)c2)cc1 (stereo not drawn) [Compound 946, 3-{[Bis-(2-hydroxy-propyl)-amino]-methyl}-N-[2-(4-methoxy-benzylidene-hydrazinocarbonyl)-4-(2-oxo-pyrrolidin-1-yl)-phenyl]-benzamide]	45%
Cc1ccc(/C=N/NC(=O)c2cc(OCC(O)CN3CCCCC3)ccc2NC(=O)c2cccc(CN(CC(C)O)CC(C)O)c2)cc1C (stereo not drawn) [Compound 949, 3-{[Bis-(2-hydroxy-propyl)-amino]-methyl}-N-[2-(3,4-dimethyl-benzylidene-hydrazinocarbonyl)-4-(2-hydroxy-3-piperidin-1-yl-propoxy)-phenyl]-benzamide]	72.6%
CCN(CC)CC(O)COc1ccc(NC(=O)c2cccc(CN(CC(C)O)CC(C)O)c2)c(C(=O)N/N=C/c2ccc(C)c(C)c2)c1 (stereo not drawn) [Compound 951, 3-{[Bis-(2-hydroxy-propyl)-amino]-methyl}-N-[4-(3-diethylamino-2-hydroxy-propoxy)-2-(3,4-dimethyl-benzylidene-hydrazinocarbonyl)-phenyl]-benzamide]	68.5%
CCN(CC)Cc1cccc(C(=O)Nc2sc(CN3CCCCC3)c(C)c2C(=O)N/N=C/c2ccc(OC)cc2)c1 [Compound 957, 3-Diethylaminomethyl-N-[3-(4-methoxy-benzylidene-hydrazinocarbonyl)-4-methyl-5-piperidin-1-ylmethyl-thiophen-2-yl]-benzamide]	54.9%
CC(O)CN(Cc1cccc(C(=O)Nc2ncccc2C(=O)N/N=C/c2cccc(F)c2)c1)CC(C)O (stereo not drawn) [Compound 964, 3-{[Bis-(2-hydroxy-propyl)-amino]-methyl}-N-[3-(3-fluoro-benzylidene-hydrazinocarbonyl)-pyridin-2-yl]-benzamide]	67.5%

Continued, values first:

inhibition at 300 µM	SMILES
67.8%	Cc1ccc(/C=N/NC(=O)c2cc(OCC(O)CN3CCOCC3)ccc2NC(=O)c2cccc(CN(CC(C)O)CC(C)O)c2)cc1C (stereo not drawn) [Compound 953, 3-{[Bis-(2-hydroxy-propyl)-amino]-methyl}-N-[2-(3,4-dimethyl-benzylidene-hydrazinocarbonyl)-4-(2-hydroxy-3-morpholin-4-yl-propoxy)-phenyl]-benzamide]
57.7%	COc1ccc(C(=O)Nc2sc(C)cc2C(=O)N/N=C/c2ccc(Cl)c(C(F)(F)F)c2)cc1OC [Compound 955, N-[3-(4-Chloro-3-trifluoromethyl-benzylidene-hydrazinocarbonyl)-5-methyl-thiophen-2-yl]-3,4-dimethoxy-benzamide]
